Measured values taken from article PMC11586334, “Molecular hybridization modification improves the stability and immunomodulatory activity of TP5 peptide” (Frontiers in Immunology, 2024).
Ends that are not written are not given here.

Experiments:
in vitro = in vitro ADME; settings: rat
Experimental: Rat plasma was collected by centrifuging whole blood from healthy adult rats. YW12D, TP5, and YTP (10 µg/mL) were incubated for different time at 37°C in rat plasma. The samples were collected into prechilled tubes containing 1 mL of acidic acetone (hydrochloric acid/acetone/H2O, 1:40:5) and centrifuged at 2, 000 × g for 20 min at 4°C. The obtained precipitates were dried in vacuum. Then, the dried precipitates were dissolved in 0.5 mL of 1 M acetic acid. The peptide analysis was conducted using HPLC. The half-lives of the peptides were calculated by a logarithm-linear regression analysis of the peptide concentrations.

recombinant TLR2 = target: T1, recombinant TLR2 (Homo sapiens, UniProt O60603); assay: SPR binding of YTP to immobilized TLR2; settings: ProteOn XPR36, TLR2 immobilized by amino coupling, 25°C, PBS with 1% Tween 20, 1:1 model
T1 construct: purchased R&D Systems
Experimental: […] (SPR) experiments were conducted using a ProteOn XPR36 instrument (Bio-Rad, Hercules, CA, USA) with a ProteOn GLH sensor chip (Bio-Rad) at 25°C. The running buffer (PBS with 1% Tween 20) was continuously passed into the reaction chamber at 30 μL/min. The SPR sensing chip with recombinant TLR2 (R&D Systems) was immobilized by amino coupling to capture YTP. The binding affinity of YTP to TLR2 was examined using peptide concentrations of […]. The running buffer was injected into the empty channels as a reference. Sensor chip regeneration and desorption were achieved by injecting 10 mM Gly-HCl buffer (pH 2.5) before the next round of analyses. The experimental data were processed using ProteOn manager software (version 2.0). The binding curves were processed for the start injection alignment and baseline. The reference-subtracted sensorgram was then fitted to the curves labeling a homogeneous 1:1 model. Protein surface data were grouped to fit the association (Ka) and dissociation (Kd) rate constants. The symmetry dissociation constant (KD) for the peptide-[…] interaction was evaluated by using the following equation: […]

RAW264.7 macrophages = type: cell-based, murine
Experimental: Murine macrophage cells (RAW264.7) were purchased from the Shanghai Cell Bank, the Institute of Cell Biology, China Academy of Sciences and cultured in Dulbecco’s modified Eagle’s medium (DMEM; HyClone, UT, USA). The DMEM medium was supplemented with 10% (v/v) fetal bovine serum (Bioscience) and 1% (v/v) penicillin/streptomycin (HyClone) and maintained at 37°C in a humidified atmosphere (5% CO2, 95% air).
RAW264.7 viability was measured using a Cell Counting Kit-8 (CCK-8) Assay Kit (Dojinbo, Japan). Cells were seeded in 96-well plates at a density of 2 × 10^4 cells/well and treated with or without YW12D, TP5 and YTP peptides (10–80 μg/mL). After incubation for 24 h, the cells were then incubated in CCK-8 reagent for 4 h at 37°C. The absorbance of each well was measured at 450 nm using a 96-well microplate reader. Cell viability was evaluated as follows:
(1) Cell viability (%)=(OD450 (sample)/OD450 (control))×100%

[1] = target: recombinant TLR2 (Toll-like receptor 2) (UniProt O60603); assay: SPR; ProteOn XPR36, GLH sensor chip; recombinant TLR2 immobilised by amino coupling; YTP passed over at 0, 1.25, 2.5, 5 and 10 (μM in the results, mM in the methods); 25°C; running buffer PBS with 1% Tween 20, 30 μL/min; homogeneous 1:1 model
Sequence of recombinant TLR2 (Toll-like receptor 2) (O60603 21-588): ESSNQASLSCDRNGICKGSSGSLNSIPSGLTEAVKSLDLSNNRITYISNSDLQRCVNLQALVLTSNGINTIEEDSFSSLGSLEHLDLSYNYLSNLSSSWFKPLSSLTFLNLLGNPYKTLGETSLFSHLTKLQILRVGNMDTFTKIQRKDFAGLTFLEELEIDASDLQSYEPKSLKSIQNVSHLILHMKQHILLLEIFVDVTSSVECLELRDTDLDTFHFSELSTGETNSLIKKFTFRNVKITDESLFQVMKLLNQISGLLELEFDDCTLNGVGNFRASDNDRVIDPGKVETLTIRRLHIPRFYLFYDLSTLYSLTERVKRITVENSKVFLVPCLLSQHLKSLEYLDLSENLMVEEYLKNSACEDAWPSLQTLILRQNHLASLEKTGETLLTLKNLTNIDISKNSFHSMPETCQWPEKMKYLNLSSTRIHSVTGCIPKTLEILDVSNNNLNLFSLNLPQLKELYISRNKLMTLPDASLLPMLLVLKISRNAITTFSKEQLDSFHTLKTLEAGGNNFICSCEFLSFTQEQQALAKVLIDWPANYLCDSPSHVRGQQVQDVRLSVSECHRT

T1 sequence (O60603 21-784, species assumed): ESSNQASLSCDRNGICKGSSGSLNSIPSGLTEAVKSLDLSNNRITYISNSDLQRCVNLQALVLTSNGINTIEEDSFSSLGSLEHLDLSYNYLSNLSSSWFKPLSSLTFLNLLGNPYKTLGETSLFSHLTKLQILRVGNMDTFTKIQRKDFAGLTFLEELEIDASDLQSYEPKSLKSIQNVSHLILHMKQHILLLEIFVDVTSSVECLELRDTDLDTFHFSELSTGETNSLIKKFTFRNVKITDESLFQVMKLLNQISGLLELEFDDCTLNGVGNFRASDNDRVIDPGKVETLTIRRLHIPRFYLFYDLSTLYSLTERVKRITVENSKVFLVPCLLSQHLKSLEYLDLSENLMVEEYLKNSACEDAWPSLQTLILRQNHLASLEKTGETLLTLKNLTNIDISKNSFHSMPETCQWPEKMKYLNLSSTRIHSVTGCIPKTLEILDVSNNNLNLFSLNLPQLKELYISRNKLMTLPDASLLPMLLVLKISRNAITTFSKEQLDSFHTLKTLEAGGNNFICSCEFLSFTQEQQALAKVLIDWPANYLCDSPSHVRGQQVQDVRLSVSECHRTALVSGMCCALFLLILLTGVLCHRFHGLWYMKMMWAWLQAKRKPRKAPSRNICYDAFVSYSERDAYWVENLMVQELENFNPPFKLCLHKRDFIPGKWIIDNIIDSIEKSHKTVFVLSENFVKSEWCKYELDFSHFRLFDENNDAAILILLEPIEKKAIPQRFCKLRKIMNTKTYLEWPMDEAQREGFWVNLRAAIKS

For YVKLWRMIKFIRRKDVY [YTP], the half-life in plasma (in vitro) was “more than 2 h”, the half-life at 10 µg/mL (in vitro; plasma) was 2 h and the Ka (association rate constant) (recombinant TLR2) was 4.31e+06 M⁻¹ s⁻¹. For the same molecule, the Kd (dissociation rate constant) (recombinant TLR2) was 0.0162 s⁻¹ and the “cytotoxicity at high dose” value (RAW264.7 macrophages) was “no significant cytotoxicity”.

With YVKLWRMIKFIRRKDVY [hybrid peptide YW12D-TP5 (YTP)] the Kd [1] was 3.76 nM.
